US11634450B2, “DOT1L degraders and uses thereof” (DANA-FARBER CANCER INSTITUTE, INC., priority 2018, dated 2023)

Columns and labels:
DOT1L [1] = molecular target: T1, DOT1L (Homo sapiens, UniProt Q8TEK3); assay: Degradation in Molm13 PA cell line by immunoblot; type: cell-based; design: endogenous in cells; conditions: FIGS. 9A-9B, 0.3 μM to 10 μM, 24, 48 and 72 hours
Experimental: FIGS. 9A-9B show acute myeloid leukemia cells (Molm13 PA) treated with DOT1L-1 at the indicated concentrations for the indicated amount of time. The cells were immunoblotted with DOT1L (D402T), actin, and H3K79me2.
The cells were immunoblotted with DOT1L (D402T), actin, and H3K79me2.
Molm13PA (acute myeloid leukemia) cells were treated with dDOT1L-1 at 0 μM, 0.3 μM, 1 μM, 3.3 μM, and 10 μM for 24 hours and 48 hours. Cell lysates were loaded on SDS-PAGE, then immunoblotted with DOT1L (D402T), actin, H3K79me2, total H3. Repeat treatment was performed at 24 hours, 48 hours and 72 hours at the same concentrations of dDOT1L-1. […] (see FIGS. 9A-9B).
Molm13PA (acute myeloid leukemia) cells were treated with DOT1L-4 at 0 μM, 0.3 μM, 1 μM, 3.3 μM, and 10 μM for 24 hours, 48 hours, and 72 hours. Cell lysates were loaded on SDS-PAGE, then immunoblotted with DOT1L (D402T), actin, H3K79me2, total H3.

DOT1L [2] = molecular target: T2, DOT1L (Mus musculus, UniProt Q6XZL8); assay: Degradation in mouse MLL-AF9 PA cell line by immunoblot; type: cell-based; conditions: FIGS. 10A-10B, mouse MLL-AF9 PA cells, up to 10 μM, 24, 48 and 72 hours
T2 construct: endogenous in cells; host or cells: mouse MLL-AF9 PA leukemia cells
T2 sequence (Q6XZL8 1-1540): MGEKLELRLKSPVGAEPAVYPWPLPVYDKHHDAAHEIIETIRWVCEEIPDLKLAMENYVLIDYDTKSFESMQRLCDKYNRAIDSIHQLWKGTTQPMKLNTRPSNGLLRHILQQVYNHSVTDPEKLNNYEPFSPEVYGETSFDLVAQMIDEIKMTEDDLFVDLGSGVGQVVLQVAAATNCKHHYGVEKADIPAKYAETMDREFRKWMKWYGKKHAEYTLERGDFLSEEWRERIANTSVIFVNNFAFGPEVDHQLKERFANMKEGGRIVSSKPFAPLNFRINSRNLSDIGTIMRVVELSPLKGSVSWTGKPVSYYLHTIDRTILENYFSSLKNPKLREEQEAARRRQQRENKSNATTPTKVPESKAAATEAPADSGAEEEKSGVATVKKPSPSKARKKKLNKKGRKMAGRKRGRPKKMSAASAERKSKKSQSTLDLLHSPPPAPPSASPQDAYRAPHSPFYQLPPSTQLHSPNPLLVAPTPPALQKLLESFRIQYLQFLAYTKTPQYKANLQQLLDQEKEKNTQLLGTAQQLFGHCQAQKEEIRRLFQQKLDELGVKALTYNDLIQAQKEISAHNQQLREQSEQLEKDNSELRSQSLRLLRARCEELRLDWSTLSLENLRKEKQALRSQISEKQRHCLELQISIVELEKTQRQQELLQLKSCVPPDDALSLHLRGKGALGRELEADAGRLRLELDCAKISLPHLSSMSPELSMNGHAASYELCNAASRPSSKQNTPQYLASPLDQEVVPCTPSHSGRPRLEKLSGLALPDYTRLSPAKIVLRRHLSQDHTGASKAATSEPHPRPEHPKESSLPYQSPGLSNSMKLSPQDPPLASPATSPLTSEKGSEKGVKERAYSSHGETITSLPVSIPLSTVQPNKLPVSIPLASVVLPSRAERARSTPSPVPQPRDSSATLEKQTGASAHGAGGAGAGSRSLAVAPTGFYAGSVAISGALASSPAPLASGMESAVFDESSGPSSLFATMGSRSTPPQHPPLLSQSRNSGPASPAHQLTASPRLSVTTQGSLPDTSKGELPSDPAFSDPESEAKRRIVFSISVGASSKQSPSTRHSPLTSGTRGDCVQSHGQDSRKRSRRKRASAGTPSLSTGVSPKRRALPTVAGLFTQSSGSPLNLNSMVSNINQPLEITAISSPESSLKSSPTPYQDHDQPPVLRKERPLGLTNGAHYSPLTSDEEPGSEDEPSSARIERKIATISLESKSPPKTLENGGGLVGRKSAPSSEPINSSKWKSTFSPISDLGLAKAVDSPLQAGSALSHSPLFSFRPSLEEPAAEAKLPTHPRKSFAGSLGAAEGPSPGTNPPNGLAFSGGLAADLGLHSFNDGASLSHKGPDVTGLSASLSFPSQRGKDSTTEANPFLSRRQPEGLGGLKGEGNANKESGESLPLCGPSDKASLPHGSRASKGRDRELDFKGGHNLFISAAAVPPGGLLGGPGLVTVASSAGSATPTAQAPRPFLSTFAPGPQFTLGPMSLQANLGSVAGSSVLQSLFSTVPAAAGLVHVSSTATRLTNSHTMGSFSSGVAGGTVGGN
Experimental: FIGS. 10A-10B show mouse MLL-AF9 PA (Mixed-lineage leukemia (MLL)-AF9 leukemia) cells treated with DOT1L-1 at the indicated concentrations for the indicated amount of time. The cells were immunoblotted with DOT1L (D402T), actin, and H3K79me2.
Mouse MLL-AF9 PA (Mixed-lineage leukemia (MLL)-AF9 leukemia) cells were treated with DOT1L-1 at 0 μM, 0.3 μM, 1 μM, 3.3 μM, and 10 μM for 24 hours, 48 hours, and 72 hours. Cell lysates were loaded on SDS-PAGE, then immunoblotted with DOT1L (D402T), actin, H3K79me2, and total H3. A second treatment was performed with DOT1L-1 concentrations of 0 μM, 0.01 μM, 0.1 μM, 0.3 μM, 1 μM, 3.3 μM, and 10 μM, at 24 hours and 48 hours.

[3] = molecular target: T3, DOT1L tagged GFP and mcherry (Homo sapiens, UniProt Q8TEK3+Q96SW2); assay: DOT1L degradation eGFP-mCherry reporting cell line assay; type: cell-based; conditions: FIG. 26, eGFP-mCherry reporting cell line, 24 hour treatment
T3 construct: eGFP; mCherry; expressed in transfected cells
T3 sequence (Q8TEK3 whole entry): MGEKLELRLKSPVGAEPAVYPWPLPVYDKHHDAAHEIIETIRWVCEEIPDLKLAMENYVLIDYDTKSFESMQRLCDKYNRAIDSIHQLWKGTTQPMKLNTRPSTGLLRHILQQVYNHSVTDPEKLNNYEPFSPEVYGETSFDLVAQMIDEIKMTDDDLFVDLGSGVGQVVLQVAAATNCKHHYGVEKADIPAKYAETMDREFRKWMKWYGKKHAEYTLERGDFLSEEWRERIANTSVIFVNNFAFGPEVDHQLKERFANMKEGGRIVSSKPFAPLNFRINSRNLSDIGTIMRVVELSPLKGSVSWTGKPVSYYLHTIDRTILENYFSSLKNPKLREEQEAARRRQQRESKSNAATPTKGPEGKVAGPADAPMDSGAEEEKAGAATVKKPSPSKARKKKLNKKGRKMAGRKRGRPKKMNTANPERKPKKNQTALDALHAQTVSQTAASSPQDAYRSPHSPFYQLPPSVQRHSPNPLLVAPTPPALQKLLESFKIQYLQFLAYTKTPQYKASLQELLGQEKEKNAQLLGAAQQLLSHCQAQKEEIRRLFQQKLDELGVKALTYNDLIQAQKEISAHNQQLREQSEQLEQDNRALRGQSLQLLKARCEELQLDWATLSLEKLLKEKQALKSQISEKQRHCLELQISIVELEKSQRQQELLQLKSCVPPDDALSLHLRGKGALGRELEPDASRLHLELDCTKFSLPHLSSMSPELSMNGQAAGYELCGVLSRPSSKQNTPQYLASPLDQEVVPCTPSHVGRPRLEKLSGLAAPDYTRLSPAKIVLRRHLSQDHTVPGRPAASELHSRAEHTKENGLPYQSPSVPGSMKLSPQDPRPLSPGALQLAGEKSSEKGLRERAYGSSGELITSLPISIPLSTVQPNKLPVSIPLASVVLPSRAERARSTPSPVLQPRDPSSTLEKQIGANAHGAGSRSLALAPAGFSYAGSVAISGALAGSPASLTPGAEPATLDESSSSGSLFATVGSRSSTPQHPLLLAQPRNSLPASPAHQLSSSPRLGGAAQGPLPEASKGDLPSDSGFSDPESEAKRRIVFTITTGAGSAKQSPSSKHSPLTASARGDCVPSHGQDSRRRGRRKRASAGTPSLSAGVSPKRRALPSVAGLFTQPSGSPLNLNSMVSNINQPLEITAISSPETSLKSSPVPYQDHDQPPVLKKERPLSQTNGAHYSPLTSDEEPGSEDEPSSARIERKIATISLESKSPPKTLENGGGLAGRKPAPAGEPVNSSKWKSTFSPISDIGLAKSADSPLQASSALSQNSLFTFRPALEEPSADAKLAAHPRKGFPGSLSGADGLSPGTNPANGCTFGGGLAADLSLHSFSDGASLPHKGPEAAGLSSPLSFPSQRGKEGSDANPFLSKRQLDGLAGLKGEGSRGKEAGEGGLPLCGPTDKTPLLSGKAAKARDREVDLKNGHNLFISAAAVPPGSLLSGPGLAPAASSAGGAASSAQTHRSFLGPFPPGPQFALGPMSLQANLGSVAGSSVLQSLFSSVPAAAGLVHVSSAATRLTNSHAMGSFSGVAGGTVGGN
T3 sequence (Q96SW2 whole entry): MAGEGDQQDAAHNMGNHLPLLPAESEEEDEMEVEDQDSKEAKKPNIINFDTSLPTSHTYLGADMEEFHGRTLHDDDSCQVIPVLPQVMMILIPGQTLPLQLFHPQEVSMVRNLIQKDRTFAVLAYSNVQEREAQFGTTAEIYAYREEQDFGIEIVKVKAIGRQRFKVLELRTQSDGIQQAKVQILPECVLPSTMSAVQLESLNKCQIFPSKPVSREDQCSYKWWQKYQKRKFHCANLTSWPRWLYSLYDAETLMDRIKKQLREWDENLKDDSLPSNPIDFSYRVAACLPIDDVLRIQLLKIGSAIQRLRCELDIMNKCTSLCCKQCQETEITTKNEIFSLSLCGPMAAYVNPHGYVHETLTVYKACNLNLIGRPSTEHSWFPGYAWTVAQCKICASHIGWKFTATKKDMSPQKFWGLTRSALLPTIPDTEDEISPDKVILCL
T3 sequence (Q16531 whole entry partner): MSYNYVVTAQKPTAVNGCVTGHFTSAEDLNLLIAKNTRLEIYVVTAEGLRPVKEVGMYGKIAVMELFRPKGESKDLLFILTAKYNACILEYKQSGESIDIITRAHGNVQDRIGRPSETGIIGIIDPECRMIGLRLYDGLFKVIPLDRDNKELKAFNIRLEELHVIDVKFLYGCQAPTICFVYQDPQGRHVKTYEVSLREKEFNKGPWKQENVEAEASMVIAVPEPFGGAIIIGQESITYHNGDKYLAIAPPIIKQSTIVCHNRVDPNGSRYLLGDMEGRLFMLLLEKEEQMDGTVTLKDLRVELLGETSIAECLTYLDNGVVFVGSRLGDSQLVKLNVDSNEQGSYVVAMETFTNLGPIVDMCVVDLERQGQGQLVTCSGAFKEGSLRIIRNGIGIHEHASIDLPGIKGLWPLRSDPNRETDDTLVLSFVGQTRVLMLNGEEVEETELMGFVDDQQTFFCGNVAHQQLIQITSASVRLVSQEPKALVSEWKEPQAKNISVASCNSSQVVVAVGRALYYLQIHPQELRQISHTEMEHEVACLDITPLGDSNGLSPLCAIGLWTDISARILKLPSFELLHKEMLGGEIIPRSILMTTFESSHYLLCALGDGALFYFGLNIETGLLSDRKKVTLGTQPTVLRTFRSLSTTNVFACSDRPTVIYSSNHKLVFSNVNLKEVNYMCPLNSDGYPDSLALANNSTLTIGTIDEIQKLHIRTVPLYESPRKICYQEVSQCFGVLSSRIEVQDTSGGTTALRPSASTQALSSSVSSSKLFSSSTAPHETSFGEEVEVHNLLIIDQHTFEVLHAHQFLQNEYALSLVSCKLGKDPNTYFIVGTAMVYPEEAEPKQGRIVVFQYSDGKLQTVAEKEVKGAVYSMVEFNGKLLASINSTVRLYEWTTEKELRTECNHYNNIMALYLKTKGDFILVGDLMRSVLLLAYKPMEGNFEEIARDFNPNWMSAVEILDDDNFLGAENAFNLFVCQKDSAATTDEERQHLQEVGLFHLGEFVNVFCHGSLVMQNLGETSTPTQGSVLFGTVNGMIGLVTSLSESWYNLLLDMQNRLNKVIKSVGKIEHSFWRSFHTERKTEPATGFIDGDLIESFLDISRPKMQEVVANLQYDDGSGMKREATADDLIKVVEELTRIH
Experimental: This can directly report the targeted protein degradation. (See Sievers et al., Science, 2018).
The tested compounds include exemplary DOT1L degrader compounds JQ-DD2, JQ-DD3, JQ-DD4, JQ-DD5, JQ-DD6, JQ-DD7, JQ-DD8, negative control EPZ5676, and positive controls thalidomide and lenalidomide. The eGFP-mCherry reporting cell line can report the degradation well in 24 hours.
A new DOT1L degradation reporting cell line was developed with DOT1L tagged GFP and mcherry. This reporting cell line can directly report the targeted protein degradation. (See Sievers et al., Science, 2018). DOT1L degradation using eGFP-mCherry reporting cell line assays were conducted for exemplary DOT1L degrader compounds, and control compounds at different concentrations [M], measured in [M] per mP. The tested compounds include exemplary DOT1L degrader compounds JQ-DD2, JQ-DD3, JQ-DD4, JQ-DD5, JQ-DD6, JQ-DD7, JQ-DD8, and controls EPZ5676, Thalidomide, and Lenalidomide.

CRBN with DOT1L = CRBN with DOT1L (Homo sapiens, UniProt Q8TEK3+Q96SW2); assay: Biochemical dimerization assay of CRBN with DOT1L induced by the degraders; conditions: FIG. 20, biochemical assay setting
Sequence of CRBN with DOT1L (Q8TEK3 whole entry): as the sequence (Q8TEK3 whole entry) above
Sequence of CRBN with DOT1L (Q96SW2 whole entry): as the sequence (Q96SW2 whole entry) above
Excerpt: This new assay checks if the exemplary compounds can dimerize CRBN and DOT1L in a biochemical assay setting.
A biochemical assay was completed to determine the dimerization of CRBN with DOT1L induced by the degraders. This assay checks if the exemplary compounds can dimerize CRBN and DOT1L in a biochemical assay setting.

DOT1L [4] = molecular target: T1, DOT1L; assay: DOT1L degradation in EOL1 cells by immunoblot; type: cell-based; design: endogenous in cells; host or cells: EOL1; conditions: for DOT1L degradation: immunoblot
Experimental: With JQ-DD6, the degradation happened at 16 hours and maximum degradation occurs at 24 hours.
(§1) EOL1 (acute myeloid (eosinophilic) leukemia cell line) cells were treated with exemplary DOT1L degrader compounds JQ-DD6, JQ-DD7, and JQ-DD8 at 0.5 μM, 1 μM, 3 μM, 5 μM, and 10 μM for 24 hours. Cell lysates were loaded on SDS-PAGE, then immunoblotted with DOT1L, Myc, H3K79me2, and actin. (see FIG. 21).
EOL1 cells were treated with exemplary DOT1L degrader compounds JQ-DD2, JQ-DD4, and JQ-DD6, JQ-DD7, and JQ-DD8 at 1 μM and […] for 2, 4, 8, 16, and 24 hours. Cell lysates were immunoblotted with DOT1L, Myc, H3K79me2, and actin at the indicated concentrations for the indicated times. (see FIG. 23).
(§2) EOL1 cells were treated with exemplary DOT1L degrader compounds JQ-DD6, JQ-DD7, and JQ-DD8 at 1 μM and […] for 24 and 48 hours. Cell lysates were immunoblotted with DOT1L, Myc, H3K79me2, and actin at the indicated concentrations for the indicated times. (see FIG. 24).

EOL1 cells = assay: Toxicity seen in EOL1 cells treated for immunoblot; type: cell-based; conditions: at 24 hours
Experimental: as §1, §2

[5] = FIG. 21, EOL1 cells, 0.5 μM, 1 μM, 3 μM, 5 μM, and 10 μM for 24 hours
[6] = FIG. 23, EOL1 cells, time course 2, 4, 8, 16, and 24 hours, 1 μM and 10M
[7] = FIG. 24, EOL1 cells, 1 μM and 10M for 24 and 48 hours

T1 sequence (Q8TEK3 whole entry): as the sequence (Q8TEK3 whole entry) above

## CC(C)N(C[C@H]1O[C@@H](n2cnc3c(NCCCCNC(=O)C=COCCOCCOCCNc4cccc5c4C(=O)N(C4CCC(=O)NC4=O)C5=O)ncnc32)[C@H](O)[C@@H]1O)C1CC(CCc2nc3cc(C(C)(C)C)ccc3[nH]2)C1 (stereo partly drawn) [DOT1L-1, N-(4-((9-((2R,3R,4S,5R)-5-(((3-(2-(5-(tert-butyl)-1H-benzo[d]imidazol-2-yl)ethyl)cyclobutyl)(isopropyl)amino)methyl)-3,4-dihydroxytetrahydrofuran-2-yl)-9H-purin-6-yl)amino)butyl)-3-(2-(2-(2-((2-(2,6-dioxopiperidin-3-yl)-1,3-dioxoisoindolin-4-yl)amino)ethoxy)ethoxy)ethoxy)propenamide]
DOT1L [1]
  effect on Molm13 PA cells in blots (DOT1L, H3K79me2): inhibits acute myeloid leukemia cells (Molm13 PA)
DOT1L [2]
  degradation in blots (DOT1L, H3K79me2): degrades Mouse MLL-AF9 PA (Mixed-lineage leukemia (MLL)-AF9 leukemia) cells

## CC(C)N(C[C@H]1O[C@@H](n2cnc3c(NCCCCNC(=O)CCCCCCCCCCCNc4cccc5c4C(=O)N(C4CCC(=O)NC4=O)C5=O)ncnc32)C(O)C1O)C1CC(CCc2nc3cc(C(C)(C)C)ccc3[nH]2)C1 (stereo partly drawn) [JQ-DD6]
[3]
  degradation of DOT1L (reporter signal): strongest signal for degradation of DOT1L
CRBN with DOT1L
  dimerization of CRBN with DOT1L (signal): strongest signal
DOT1L [4]; [5]
  DOT1L degradation: solid degradation
DOT1L [4]; [6]
  time at which DOT1L degradation happened: 16 h
  time of maximum DOT1L degradation: 24 h
DOT1L [4]; [7]
  DOT1L degradation: shows degradation
DOT1L [4]; general remark in legend of FIG. 20, cell not named there
  activity in the cell: works very well in the cell

## CC(C)N(CCCNC(=O)Nc1ccc(C(C)(C)C)cc1)C[C@H]1O[C@@H](n2cnc3c(NCCCCNC(=O)CCCCCCCCCCCNc4cccc5c4C(=O)N(C4CCC(=O)NC4=O)C5=O)ncnc32)C(O)C1O (stereo partly drawn) [JQ-DD8]
EOL1 cells; FIG. 21, EOL1 cells
  toxicity in EOL1: potential toxicity
EOL1 cells; FIG. 24, EOL1 cells
  toxicity in EOL1: potential toxicity
DOT1L [4]; [5]
  DOT1L degradation: show degradation
DOT1L [4]; [7]
  DOT1L degradation: shows degradation

## CC(C)N(C[C@H]1O[C@@H](n2cnc3c(NCCCCNC(=O)CCCCCCCCCNc4cccc5c4C(=O)N(C4CCC(=O)NC4=O)C5=O)ncnc32)C(O)C1O)C1CC(CCc2nc3cc(C(C)(C)C)ccc3[nH]2)C1 (stereo partly drawn) [JQ-DD7]
DOT1L [4]; [5]
  DOT1L degradation: show degradation
DOT1L [4]; [7]
  DOT1L degradation: shows degradation
